Patent publication US10144730B2, “Inhibitors of c-Jun-N-terminal kinase (JNK)” (Dana-Farber Cancer Institute, Inc., priority 2011, dated 2018)

Legend:
c-Jun phosphorylation = test: Western blot of anisomycin-stimulated phosphorylation in HEK293-IL1R cells; format: cell-based
Protocol: FIGS. 16A and 16B depict Western blot results. […] Cell lysates were prepared, resolved by SDS-PAGE, and p-c-Jun (Ser63) and p-JNK were monitored by Western blot.
HEK-293 cells stably expressing Interleukin Receptor 1 (HEK293-IL1R) were cultured in Dulbecco's Modified Eagle's medium (DMEM) supplemented with 10% FBS, 2 mM glutamine and 1× antimycotic/antibiotic solution. Cells were serum starved for 18 h before incubation with DMSO or different inhibitors, stimulated with 2 μM anisomycin (Sigma) for 1 h, and lysates were clarified by centrifugation for 10 min at 16000 g and 4° C.
Rabbit polyclonal antibodies against total pan JNK isoforms ((#9252), phospho-pan JNK isoforms (Thr183/Tyr185), (#4668), total p38 (#9212) or phospho-p38 MAPK (Thr180/Tyr182), (4631 resp.), total c-Jun (#9165), phospho-c-Jun (Ser63) (#9261), and phospho-MSK1 (Ser376) (#9591) were from Cell Signalling technology.
Cell lysates (30 μg) were resolved by electrophoresis on SDS polyacrylamide gels (10%) or Novex 4-12% gradient gels, and electroblotted to nitrocellulose membranes. Membranes were blocked with 5% skimmed milk (w/v) in 50 mM Tris/HCl (pH 7.5) 0.15 M NaCl, and 0.1% (v/v) Tween (TBST Buffer). Primary antibodies were used at a concentration of 1 μg/ml, diluted in 5% skimmed milk in TBST, and incubated overnight at 4° C. […]

[1] = biological target: additional kinase targets; test: Follow-up enzymatic IC50 or Kd on potential additional kinase targets; conditions: further biochemical and binding assays
Text: Scores were obtained from the profiling against a […] using Kinome Scan™ technology as illustrated in FIG. 11.
To complement the KiNativ profiling, the in vitro kinase selectivity of several key compounds was comprehensively evaluated by two complementary approaches: a kinase-binding assays against a panel of 442 distinct kinases using the KINOMEscan methodology (DiscoverX) and a standard radioactivity-based enzymatic assays against a panel of 124 kinases (The National Centre for Protein Kinase Profiling in Dundee). […] It was attempted to confirm all these potent binding targets using either an enzymatic kinase assay or through the measurement of a dissociation constant to the kinase in question.

JNK1 = JNK1 (Homo sapiens, UniProt P45983); test: Biochemical JNK1 kinase inhibition (Z'-lyte format); conditions: Table 2
JNK1, sequence (P45983 whole entry): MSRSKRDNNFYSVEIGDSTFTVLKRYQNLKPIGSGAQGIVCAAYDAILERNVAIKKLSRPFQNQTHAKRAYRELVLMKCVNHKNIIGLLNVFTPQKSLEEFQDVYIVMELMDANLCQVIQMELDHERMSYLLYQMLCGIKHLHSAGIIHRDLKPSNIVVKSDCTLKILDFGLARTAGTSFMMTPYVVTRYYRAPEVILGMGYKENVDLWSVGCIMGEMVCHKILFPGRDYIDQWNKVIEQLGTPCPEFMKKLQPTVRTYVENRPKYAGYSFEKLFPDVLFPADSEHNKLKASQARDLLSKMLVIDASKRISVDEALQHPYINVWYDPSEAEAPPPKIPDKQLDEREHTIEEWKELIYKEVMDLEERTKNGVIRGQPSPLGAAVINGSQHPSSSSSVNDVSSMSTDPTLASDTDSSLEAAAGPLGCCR

[2] = biological target: panel of 442 distinct kinases; test: KINOMEscan kinase-binding panel; conditions: screening concentration of 1 μM
HIPK4 = biological target: T1, HIPK4 (Homo sapiens, UniProt Q8NE63); test: HIPK4 follow-up enzymatic assay; format: biochemical; conditions: follow-up enzymatic assay (FIG. 12)
T1 sequence (Q8NE63 1-616): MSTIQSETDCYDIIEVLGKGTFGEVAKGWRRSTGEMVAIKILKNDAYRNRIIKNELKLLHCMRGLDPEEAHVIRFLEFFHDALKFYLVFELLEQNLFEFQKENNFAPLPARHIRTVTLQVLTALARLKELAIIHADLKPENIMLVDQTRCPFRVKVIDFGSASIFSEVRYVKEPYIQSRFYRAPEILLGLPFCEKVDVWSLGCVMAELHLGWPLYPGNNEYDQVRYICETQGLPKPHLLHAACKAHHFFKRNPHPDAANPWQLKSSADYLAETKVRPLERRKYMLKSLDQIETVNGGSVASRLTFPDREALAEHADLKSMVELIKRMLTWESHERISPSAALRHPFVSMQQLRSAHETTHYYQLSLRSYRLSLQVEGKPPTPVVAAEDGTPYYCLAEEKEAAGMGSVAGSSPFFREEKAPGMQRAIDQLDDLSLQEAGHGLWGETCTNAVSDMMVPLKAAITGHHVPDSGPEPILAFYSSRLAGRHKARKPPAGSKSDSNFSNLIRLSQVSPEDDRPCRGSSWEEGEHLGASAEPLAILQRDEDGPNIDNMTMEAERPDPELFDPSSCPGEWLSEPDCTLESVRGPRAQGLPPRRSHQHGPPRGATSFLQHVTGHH
Text: This high in vitro selectivity however differed markedly from the large number of targets detected by KiNativ.

JNK3 = JNK3 (Homo sapiens, UniProt P53779); test: Biochemical JNK3 kinase inhibition (Z'-lyte format); conditions: Table 2
JNK3, sequence (P53779 whole entry): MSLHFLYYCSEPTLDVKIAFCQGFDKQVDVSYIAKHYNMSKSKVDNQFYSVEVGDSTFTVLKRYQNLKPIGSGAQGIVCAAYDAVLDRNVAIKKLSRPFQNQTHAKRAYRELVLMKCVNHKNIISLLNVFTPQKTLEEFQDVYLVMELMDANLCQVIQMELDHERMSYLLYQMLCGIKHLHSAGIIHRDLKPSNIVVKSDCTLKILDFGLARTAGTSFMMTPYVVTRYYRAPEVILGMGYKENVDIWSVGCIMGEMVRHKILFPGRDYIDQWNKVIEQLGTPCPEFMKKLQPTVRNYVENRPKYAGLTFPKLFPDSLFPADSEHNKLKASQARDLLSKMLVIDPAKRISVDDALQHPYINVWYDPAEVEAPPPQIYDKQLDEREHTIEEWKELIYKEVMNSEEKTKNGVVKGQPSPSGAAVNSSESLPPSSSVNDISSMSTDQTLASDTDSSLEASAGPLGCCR

JNK2 = JNK2 (Homo sapiens, UniProt P45984); test: Biochemical JNK2 kinase inhibition (Z'-lyte format); conditions: Table 2
JNK2, sequence (P45984 whole entry): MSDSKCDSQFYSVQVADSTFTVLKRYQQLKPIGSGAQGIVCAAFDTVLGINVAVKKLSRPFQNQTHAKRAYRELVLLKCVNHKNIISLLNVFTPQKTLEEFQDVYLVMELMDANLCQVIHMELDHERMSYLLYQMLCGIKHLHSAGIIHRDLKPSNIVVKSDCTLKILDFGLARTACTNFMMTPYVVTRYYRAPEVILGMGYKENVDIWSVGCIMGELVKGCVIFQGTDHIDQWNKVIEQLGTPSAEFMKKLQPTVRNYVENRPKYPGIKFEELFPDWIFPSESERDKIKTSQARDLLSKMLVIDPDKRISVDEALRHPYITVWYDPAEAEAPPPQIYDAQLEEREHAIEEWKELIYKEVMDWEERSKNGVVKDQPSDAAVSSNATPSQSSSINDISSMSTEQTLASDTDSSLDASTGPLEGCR

IRAK1 = IRAK1 (Homo sapiens, UniProt P51617); test: IRAK1 biochemical kinase assay; conditions: biochemical / follow-up enzymatic assay; read-out: IC50 against IRAK1
IRAK1, sequence (P51617 whole entry): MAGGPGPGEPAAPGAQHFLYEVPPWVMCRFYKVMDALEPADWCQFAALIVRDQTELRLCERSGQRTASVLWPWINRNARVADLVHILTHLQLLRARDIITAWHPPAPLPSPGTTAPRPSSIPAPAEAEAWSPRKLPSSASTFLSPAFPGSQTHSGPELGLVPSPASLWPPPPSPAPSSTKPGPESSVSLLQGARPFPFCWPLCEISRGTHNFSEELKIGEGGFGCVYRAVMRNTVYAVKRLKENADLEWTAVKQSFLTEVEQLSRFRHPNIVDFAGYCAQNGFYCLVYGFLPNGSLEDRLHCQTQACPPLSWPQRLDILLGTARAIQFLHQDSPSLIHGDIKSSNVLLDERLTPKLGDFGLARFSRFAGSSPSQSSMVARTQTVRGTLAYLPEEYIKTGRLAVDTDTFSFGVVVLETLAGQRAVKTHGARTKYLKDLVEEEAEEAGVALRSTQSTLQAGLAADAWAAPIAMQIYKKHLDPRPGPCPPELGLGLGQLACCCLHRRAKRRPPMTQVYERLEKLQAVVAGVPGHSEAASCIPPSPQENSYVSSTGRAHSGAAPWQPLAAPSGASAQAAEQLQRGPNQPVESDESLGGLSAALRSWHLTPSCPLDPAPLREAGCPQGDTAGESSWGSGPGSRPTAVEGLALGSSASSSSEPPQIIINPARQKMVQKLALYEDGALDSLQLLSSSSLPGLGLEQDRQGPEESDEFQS

IC50 or Kd of any further target [1] | IC50 (JNK1) | KINOMEscan S score (ratio number of kinases inhibited more than 90 percent) [2] | IC50 (HIPK4) | IC50 (JNK3) | IC50 (JNK2) | IC50 (IRAK1) | Compound | time for inhibition of JNK in cells to reach completion (c-Jun phosphorylation; HEK293-ILR1 cells (FIGS. 16A and 16B)) | reversal of inhibition of c-Jun phosphorylation after removal of inhibitor (washout) (c-Jun phosphorylation; HEK293-ILR1 cells, three hours treatment then washout)
≥ 1000 nM |  |  |  |  |  |  | Cc1cc(NC(=O)c2cccc(NC(=O)/C=C/CN(C)C)c2)ccc1Nc1nccc(-c2cccnc2)n1 [JNK-IN-8] | approximately 3 hours | not reversed
 | 13 nM | 0.025 | 57.1 nM | 11 nM | 11.3 nM | 37.6 nM | CN(C)C/C=C/C(=O)Nc1cccc(C(=O)Nc2ccc(Nc3nccc(/C(C#N)=C4\Nc5ccccc5S4)n3)cc2)c1 [JNK-IN-12] |  | 
